# Measurements from US20260256792A1, “TREATMENT OF CHRONIC SPONTANEOUS URTICARIA BY ADMINISTERING (R)-2-[3-[4-AMINO-3-(2-FLUORO-4-PHENOXY-PHENYL)PYRAZOLO[3,4-D]PYRIMIDIN-1-YL]PIPERIDINE-1-CARBONYL]-4-METHYL-4-[4-(OXETAN-3-YL)PIPERAZIN-1-YL]PENT-2-ENENITRILE” (priority 2023, published 2026).
# Test system: moderate-to-severe chronic spontaneous urticaria (CSU)
# Experiment: Phase 2 CSU study: itch severity score over 7 days (ISS7)
# Format: in vivo, human
# Details: for Change from Baseline in ISS7 at Week 12, LS Mean / Change from Baseline in ISS7 at Week 12, LS Mean Diff vs. placebo / Change from Baseline in ISS7 at Week 12, Mean: Omalizumab-naïve population; for ISS7 change from baseline at Week 12, LS Mean / ISS7 change from baseline at Week 12, LS Mean Diff vs. placebo: ANCOVA
# Excerpt: The study comprises a 12 week, randomized, double-blind, placebo-controlled, multi-center, dose-ranging efficacy and safety phase, followed by a 40 week open label extension (OLE) phase (see FIG. 1). The study consists of three phases and an optional OLE phase. […] Clinically, CSU is characterized by the spontaneous and recurrent appearance of pruritic hives. The proposed primary endpoints were the UAS7 at Week 12 in EU and EU reference countries and the ISS7 in the US. Regardless of where a participant was from, all assessments were the same. The UAS7 score is a composite score containing both the HSS7 and the ISS7. This allowed a global assessment of the two key components of urticaria: hives and itch. […] The UAS is a validated PRO measure. […] The daily UAS scores range from 0 to 6 point/day. […] Patients were to complete the UAS using the e-diary. […] The following secondary endpoints were to be analyzed using the same approach as for the primary endpoint: • Change from baseline in UAS7 at Week 4 • Change from baseline in UAS7 at Week 12 (for US and US reference countries) • Change from baseline in ISS7 at Week 12 (except US and US reference countries) • Change from baseline in HSS7 at Week 12
# [1] = 400 mg QPM, Duration of disease (years) <2
# [2] = 400 mg QPM, Duration of disease (years) >10
# [3] = 400 mg QPM, Ethnicity Non-Hispanic
# [4] = 400 mg QPM, History of angioedema No
# [5] = 400 mg QPM, History of angioedema Yes
# [6] = 400 mg QPM, Race All the Others
# [7] = 400 mg QPM, Region Eastern Europe
# [8] = 400 mg QPM, Region Latin America
# [9] = 400 mg QPM, Region Western Countries
# [10] = 400 mg QPM, omalizumab-naïve population
# [11] = 400 mg QPM, omalizumab-naïve population with outlier removed
# [12] = 400 mg TID, Age group (years) <44 (Median)
# [13] = 400 mg TID, Age group (years) <65
# [14] = 400 mg TID, Age group (years) ≥44 (Median)
# [15] = 400 mg TID, Baseline BHRA BHRA+
# [16] = 400 mg TID, Baseline BHRA BHRA−
# [17] = 400 mg TID, Baseline Eosinophils (10^9/L) <0.150
# [18] = 400 mg TID, Baseline Eosinophils (10^9/L) <0.165 (Median)
# [19] = 400 mg TID, Baseline Eosinophils (10^9/L) <0.3
# [20] = 400 mg TID, Baseline Eosinophils (10^9/L) ≥0.150
# [21] = 400 mg TID, Baseline Eosinophils (10^9/L) ≥0.165 (Median)
# [22] = 400 mg TID, Baseline Eosinophils (10^9/L) ≥0.3
# [23] = 400 mg TID, Baseline H1-antihistamines dose 1-fold
# [24] = 400 mg TID, Baseline H1-antihistamines dose 2 to 4-fold standard dose
compound,measurement,setting,value
"CC(C)(C=C(C#N)C(=O)N1CCC[C@@H](n2nc(-c3ccc(Oc4ccccc4)cc3F)c3c(N)ncnc32)C1)N1CCN(C2COC2)CC1 [rilzabrutinib, (R)-2-[3-[4-amino-3-(2-fluoro-4-phenoxy-phenyl)pyrazolo[3,4-d]pyrimidin-1-yl]piperidine-1-carbonyl]-4-methyl-4-[4-(oxetan-3-yl)piperazin-1-yl]pent-2-enenitrile]","Change from Baseline in ISS7 at Week 12, LS Mean",[1],−4.83
same,"Change from Baseline in ISS7 at Week 12, LS Mean Diff vs. placebo",[1],−1.18
same,"Change from Baseline in ISS7 at Week 12, Mean",[1],−5.46
same,"Change from Baseline in ISS7 at Week 12, LS Mean",[2],−0.20
same,"Change from Baseline in ISS7 at Week 12, LS Mean Diff vs. placebo",[2],3.49
same,"Change from Baseline in ISS7 at Week 12, Mean",[2],−3.29
same,"Change from Baseline in ISS7 at Week 12, LS Mean","400 mg QPM, Ethnicity Hispanic",−4.19
same,"Change from Baseline in ISS7 at Week 12, LS Mean Diff vs. placebo","400 mg QPM, Ethnicity Hispanic",2.82
same,"Change from Baseline in ISS7 at Week 12, Mean","400 mg QPM, Ethnicity Hispanic",−5.04
same,"Change from Baseline in ISS7 at Week 12, LS Mean",[3],−5.29
same,"Change from Baseline in ISS7 at Week 12, LS Mean Diff vs. placebo",[3],−0.82
same,"Change from Baseline in ISS7 at Week 12, Mean",[3],−6.12
same,"Change from Baseline in ISS7 at Week 12, Mean","400 mg QPM, Gender Female",−5.86
same,"Change from Baseline in ISS7 at Week 12, Mean","400 mg QPM, Gender Male",−5.20
same,"Change from Baseline in ISS7 at Week 12, LS Mean",[4],−4.56
same,"Change from Baseline in ISS7 at Week 12, LS Mean Diff vs. placebo",[4],0.78
same,"Change from Baseline in ISS7 at Week 12, Mean",[4],−5.32
same,"Change from Baseline in ISS7 at Week 12, LS Mean",[5],−5.00
same,"Change from Baseline in ISS7 at Week 12, LS Mean Diff vs. placebo",[5],0.25
same,"Change from Baseline in ISS7 at Week 12, Mean",[5],−6.31
same,"ISS7 at Week 12, Mean","400 mg QPM, ITT population",11.37
same,"ISS7 at Week 12, Median","400 mg QPM, ITT population",11.20
same,"ISS7 change from baseline at Week 12, Mean","400 mg QPM, ITT population",−5.95
same,"ISS7 change from baseline at Week 12, Median","400 mg QPM, ITT population",−5.67
same,"ISS7 change from baseline at Week 12, LS Mean","400 mg QPM, ITT population",−5.46 points
same,"ISS7 change from baseline at Week 12, LS Mean Diff vs. placebo","400 mg QPM, ITT population",0.85
same,"Change from Baseline in ISS7 at Week 12, LS Mean",[6],−4.94
same,"Change from Baseline in ISS7 at Week 12, LS Mean Diff vs. placebo",[6],−1.48
same,"Change from Baseline in ISS7 at Week 12, Mean",[6],−5.66
same,"Change from Baseline in ISS7 at Week 12, LS Mean","400 mg QPM, Race White",−4.41
same,"Change from Baseline in ISS7 at Week 12, LS Mean Diff vs. placebo","400 mg QPM, Race White",1.60
same,"Change from Baseline in ISS7 at Week 12, Mean","400 mg QPM, Race White",−5.70
same,"Change from Baseline in ISS7 at Week 12, LS Mean","400 mg QPM, Region Asia",−5.17
same,"Change from Baseline in ISS7 at Week 12, LS Mean Diff vs. placebo","400 mg QPM, Region Asia",−1.72
same,"Change from Baseline in ISS7 at Week 12, Mean","400 mg QPM, Region Asia",−5.66
same,"Change from Baseline in ISS7 at Week 12, LS Mean",[7],−4.74
same,"Change from Baseline in ISS7 at Week 12, LS Mean Diff vs. placebo",[7],7.93
same,"Change from Baseline in ISS7 at Week 12, Mean",[7],−5.54
same,"Change from Baseline in ISS7 at Week 12, LS Mean",[8],−5.19
same,"Change from Baseline in ISS7 at Week 12, LS Mean Diff vs. placebo",[8],1.40
same,"Change from Baseline in ISS7 at Week 12, Mean",[8],−6.51
same,"Change from Baseline in ISS7 at Week 12, LS Mean",[9],−3.02
same,"Change from Baseline in ISS7 at Week 12, LS Mean Diff vs. placebo",[9],1.53
same,"Change from Baseline in ISS7 at Week 12, Mean",[9],−4.61
same,"ISS7 at Week 12, Median",[10],11.60
same,"ISS7 change from baseline at Week 12, Mean",[10],−5.69
same,"ISS7 change from baseline at Week 12, Median",[10],−5.33
same,"ISS7 at Week 12, Median",[11],11.60
same,"ISS7 change from baseline at Week 12, Mean",[11],−5.69
same,"ISS7 change from baseline at Week 12, Median",[11],−5.33
same,"ISS7 change from baseline at Week 12, LS Mean",[11],−5.29 points
same,"ISS7 change from baseline at Week 12, LS Mean Diff vs. placebo",[11],0.42
same,"ISS7 change from baseline at Week 12, LS Mean",[10],−5.19 points
same,"ISS7 change from baseline at Week 12, LS Mean Diff vs. placebo",[10],0.58
same,patients with improvement in the weekly ISS7,400 mg TID arm,all patients except one showed improvement
same,"Change from Baseline in ISS7 at Week 12, LS Mean",[12],−9.04
same,"Change from Baseline in ISS7 at Week 12, LS Mean Diff vs. placebo",[12],−4.56
same,"Change from Baseline in ISS7 at Week 12, LS Mean",[13],−8.63
same,"Change from Baseline in ISS7 at Week 12, LS Mean Diff vs. placebo",[13],−2.97
same,"Change from Baseline in ISS7 at Week 12, Mean",[13],−9.73
same,"Change from Baseline in ISS7 at Week 12, LS Mean",[14],−9.26
same,"Change from Baseline in ISS7 at Week 12, LS Mean Diff vs. placebo",[14],−2.66
same,"Change from Baseline in ISS7 at Week 12, Mean",[14],−10.16
same,"Change from Baseline in ISS7 at Week 12, Mean","400 mg TID, Age group (years) ≥65",−13.50
same,"Change from Baseline in ISS7 at Week 12, LS Mean",[15],−12.96
same,"Change from Baseline in ISS7 at Week 12, LS Mean Diff vs. placebo",[15],−7.58
same,"Change from Baseline in ISS7 at Week 12, Mean",[15],−12.42
same,"Change from Baseline in ISS7 at Week 12, LS Mean",[16],−8.82
same,"Change from Baseline in ISS7 at Week 12, Mean",[16],−9.91
same,"Change from Baseline in ISS7 at Week 12, LS Mean Diff vs. placebo","400 mg TID, Baseline BMI (kg/m^2) ≥30",−3.19
same,"Change from Baseline in ISS7 at Week 12, LS Mean",[17],−10.28
same,"Change from Baseline in ISS7 at Week 12, LS Mean Diff vs. placebo",[17],−3.50
same,"Change from Baseline in ISS7 at Week 12, LS Mean",[18],−10.22
same,"Change from Baseline in ISS7 at Week 12, LS Mean Diff vs. placebo",[18],−3.71
same,"Change from Baseline in ISS7 at Week 12, Mean",[18],−10.99
same,"Change from Baseline in ISS7 at Week 12, LS Mean",[19],−9.46
same,"Change from Baseline in ISS7 at Week 12, LS Mean Diff vs. placebo",[19],−3.99
same,"Change from Baseline in ISS7 at Week 12, Mean",[19],−10.61
same,"Change from Baseline in ISS7 at Week 12, LS Mean",[20],−8.30
same,"Change from Baseline in ISS7 at Week 12, LS Mean Diff vs. placebo",[20],−4.31
same,"Change from Baseline in ISS7 at Week 12, LS Mean",[21],−8.24
same,"Change from Baseline in ISS7 at Week 12, LS Mean Diff vs. placebo",[21],−4.16
same,"Change from Baseline in ISS7 at Week 12, Mean",[21],−9.55
same,"Change from Baseline in ISS7 at Week 12, LS Mean",[22],−8.12
same,"Change from Baseline in ISS7 at Week 12, LS Mean Diff vs. placebo",[22],−3.27
same,"Change from Baseline in ISS7 at Week 12, Mean",[22],−8.68
same,"Change from Baseline in ISS7 at Week 12, LS Mean",[23],−8.05
same,"Change from Baseline in ISS7 at Week 12, LS Mean Diff vs. placebo",[23],−1.22
same,"Change from Baseline in ISS7 at Week 12, Mean",[23],−8.88
same,"Change from Baseline in ISS7 at Week 12, LS Mean",[24],−11.00
same,"Change from Baseline in ISS7 at Week 12, LS Mean Diff vs. placebo",[24],−7.52
